Data reported in patent publication US12357669B1, “Modification of natural compounds to create products with enhanced health benefits” (priority 2024, dated 2025).

System: patient with continuously active ulcerative colitis (UC)
Assay: observations in a patient with continuously active ulcerative colitis (UC)
Assay type: in vivo, human
Settings: components without prior formation of the chelate/complex
Description: Many patients with ulcerative colitis have remitting/recurring disease activity which occurs spontaneously at random times. Other factors, such as changes in diet, stress, intercurrent use of medications either to control symptoms of UC or used to treat other conditions, such as antibiotics non steroidal pain medications and steroids, may make inflammation and symptoms worse or better depending on their particular properties.
Some patients with UC have unremitting continuously active disease which never goes into remission spontaneously. Such patients make excellent study subjects since the action of compounds designed to reduce disease activity and symptoms can be evaluated without the complicating factor of spontaneous changes in disease severity.
In the patient studied in this report disease activity was observed over several decades and was continuously active with no spontaneous remissions.

iron
amelioration of the symptoms of ulcerative colitis: not seen
